{"source": "patent US9394544B2", "about": "“Ameliorating oxidative stress in neurodegenerative disease via Nox1 targeting” (University of Central Florida Research Foundation, Inc., priority 2013, dated 2016)", "key": {"[1]": {"system": "differentiated human dopaminergic cells (ReNcell VM)", "experiment": "α-Synuclein and Nox1 levels in differentiated ReNcell VM human dopaminergic neurons exposed to PQ", "type": "cell-based", "description": "For the in vitro experiments on human dopaminergic neurons, human mesencephalic neuronal progenitor cell line available from Millipore (catalog number SCC008) was used. The specialty of these cells is that they are isolated from fetal human ventral mesencephalic region and subsequently immortalized by introduction of v-myc. The cells can readily differentiate into dopaminergic neurons upon withdrawal of growth factors (Millipore). The culture method was followed as indicated by the company with little modifications. Briefly, the cells were allowed to grow on laminin-coated (20 μg/ml) dishes in DMEM/F12-containing medium with B27 supplement, glutamax, heparin (10 U/ml), and gentamicin (50 μg/ml). This medium is called maintenance medium. Cell division was allowed by addition of the two growth factors in the medium viz., basic fibroblast growth factor (bFGF) and epidermal growth factor (EGF), both at a concentration of 20 ng/ml. […]\nAfter each respective treatment, cells were fixed in 4% paraformaldehyde (PFA) for 20 min and permeabilized with 0.1% Triton X-100 in PBS for 10 min. […] For quantification of Flag^+ and α-synuclein^+ cells, >30 different fields per coverslip were analyzed on a Nikon inverted fluorescent microscope under a 20× and 40× magnification."}, "[2]": {"system": "α-synuclein", "experiment": "α-Synuclein protein levels (immunoblot) in N27 cells exposed to PQ", "type": "cell-based, rat", "description": "The N27 cells were grown in RPMI 1640 medium containing 10% fetal bovine serum (FBS), 100 U penicillin, and 50 μg/ml streptomycin, in a humidified atmosphere of 5% CO2 at 37° C. N27 cultures were prepared for experiments by plating the cells on polystyrene tissue culture dishes at a density of 0.5×10^5 cells/well in 24-well culture plates with glass coverslip and at 1.5×10^5 cells/well in 6-well culture plates.\nFor Western blot, brain tissues were lysed on ice in radioimmunoprecipitation assay buffer containing 50 mMTris/HCl, pH 8.0, 150 mM NaCl, 2 mM sodium orthovanadate, 1% Nonidet-P40 (NP-40), 0.5% sodium deoxycholate, and 0.1% SDS, containing 1% of a protease inhibitor mixture (AEBSF, pepstatinA, E-64, bestatin, leupeptin, and aprotinin). The soluble fraction was obtained and equal amounts of cell lysate protein were loaded in each lane of a 12% SDS-PAGE or 4/10% to 20% polyacrylamide gel. After electrophoresis and transfer onto a polyvinylidene difluoride (PVDF) membrane, specific protein bands were detected using appropriate primary antibodies (rabbit anti-Nox1, rabbit anti-α-synuclein, mouse anti-Ubiquitin, mouse anti-tyrosine hydroxylase (TH), and mouse anti-β-actin) and secondary antibodies conjugated to alkaline phosphatase or […] peroxidase (anti-rabbit or anti-mouse) followed by Enhanced Chemifluorescence (ECF) detection or Enhanced Chemiluminescence (ECL)."}}, "data": [{"smiles": "C[n+]1ccc(-c2cc[n+](C)cc2)cc1", "note": "[PQ, paraquat]", "values": [{"measurement": "Nox1 level (immunocytochemistry, Western blot)", "setting": "[1]; 8 h PQ", "result": "highly elevated"}, {"measurement": "α-synuclein level", "setting": "[1]; PQ 800 or 1000 μM, 8 and 24 h", "result": "increases over time"}, {"measurement": "increase of α-synuclein protein levels", "setting": "[2]; 800 μM, 8 h", "result": 55, "unit": "%"}, {"measurement": "increase of α-synuclein protein levels", "setting": "[2]; 800 μM, 24 h", "result": 61, "unit": "%"}, {"measurement": "increase of α-synuclein protein levels", "setting": "[2]; 1000 μM, 8 h", "result": 60, "unit": "%"}, {"measurement": "increase of α-synuclein protein levels", "setting": "[2]; 1000 μM, 24 h", "result": 27, "unit": "%"}]}]}
